# From EPA's ToxRefDB 2
# Key:
# [1] = tested on: rat; conditions: Prenatal developmental toxicity study, sprague dawley, Oral, Gavage/Intubation, dose end: 15 GD
# [2] = tested on: mouse; conditions: Subchronic oral toxicity in rodents, cd1, Feed, dose end: 3 month, group: systemic, systemic / clinical chemistry / albumin / albumin + systemic / clinical chemistry / bilirubin / total bilirubin + systemic / organ weight / …
# [3] = tested on: rat; conditions: Multigenerational reproductive toxicity study, sprague dawley, Oral, Feed, dose end: 2 generation
# [4] = tested on: mouse; conditions: Carcinogenicity, cd1, Oral, Feed, dose end: 18 month, group: systemic
# [5] = tested on: dog; conditions: Chronic toxicity; beagle; Oral; Feed; dose end: 1 year; group: systemic; systemic / pathology microscopic / kidney / fatty change + systemic / pathology microscopic / kidney / lipofuscin deposits + systemic / …
# [6] = tested on: rat; conditions: Combined chronic toxicity/carcinogenicity; sprague dawley; Oral; Feed; dose end: 2 year; group: systemic; systemic / clinical chemistry / bilirubin / total bilirubin + systemic / hematology / lymphocyte / lymphocyte + systemic / hematology / …
# [7] = tested on: dog; conditions: Subchronic oral toxicity in nonrodent, beagle, Feed, dose end: 90 day, group: systemic, systemic / hematology / [other] / [other] + systemic / hematology / anisocytosis / anisocytosis + systemic / hematology / leukocyte (wbc) …
# [8] = tested on: rat; conditions: Subchronic oral toxicity in rodents, sprague dawley, Feed, dose end: 90 day, group: systemic
# [9] = tested on: rabbit; conditions: Prenatal developmental toxicity study, new zealand white, Oral, Gavage/Intubation, dose end: 19 GD
# [10] = group: developmental, developmental / developmental malformation / bone / full supernumerary + developmental / developmental malformation / bone / short …
# [11] = group: maternal, systemic / in life observation / body weight / body weight gain
# [12] = group: offspring, systemic / in life observation / body weight / offspring (pup) weight
# [13] = group: parental, systemic / in life observation / body weight / body weight + systemic / in life observation / body weight / body weight gain
# [14] = group: reproductive, reproductive / reproductive performance / fertility / fertility
# [15] = systemic / in life observation / body weight / body weight + systemic / in life observation / body weight / body weight gain
# [16] = systemic / in life observation / body weight / body weight + systemic / in life observation / body weight / body weight gain + systemic / …
# [17] = group: developmental, developmental / developmental malformation / general / runts
# [18] = group: developmental, developmental / developmental malformation / general / runts + developmental / developmental malformation / bone / detached + developmental…
# [19] = group: maternal, systemic / in life observation / body weight / body weight gain + systemic / in life observation / food consumption / food consumption + …
compound,measurement,setting,value
COc1nc(C)nc(NC(=O)NS(=O)(=O)c2ccccc2CCC(F)(F)F)n1 [Prosulfuron],LEL,[1]; [10],400 mg/kg/day
same,LOAEL,[1]; [10],400 mg/kg/day
same,NEL,[1]; [10],200 mg/kg/day
same,NOAEL,[1]; [10],200 mg/kg/day
same,LEL,[1]; [11],400 mg/kg/day
same,LOAEL,[1]; [11],400 mg/kg/day
same,NEL,[1]; [11],200 mg/kg/day
same,NOAEL,[1]; [11],200 mg/kg/day
same,LEL,[2],69.3 mg/kg/day
same,LOAEL,[2],69.3 mg/kg/day
same,NEL,[2],2.01 mg/kg/day
same,NOAEL,[2],2.01 mg/kg/day
same,LEL,[3]; [12],136 mg/kg/day
same,LOAEL,[3]; [12],136 mg/kg/day
same,NEL,[3]; [12],13.3 mg/kg/day
same,NOAEL,[3]; [12],13.3 mg/kg/day
same,LEL,[3]; [13],136 mg/kg/day
same,LOAEL,[3]; [13],136 mg/kg/day
same,NEL,[3]; [13],13.3 mg/kg/day
same,NOAEL,[3]; [13],13.3 mg/kg/day
same,LEL,[3]; [14],278 mg/kg/day
same,LOAEL,[3]; [14],> 278 mg/kg/day
same,NEL,[3]; [14],136 mg/kg/day
same,NOAEL,[3]; [14],≥ 278 mg/kg/day
same,LOAEL,[4]; systemic / in life observation / body weight / body weight gain,508 mg/kg/day
same,NOAEL,[4]; systemic / in life observation / body weight / body weight gain + systemic / hematology / mean corpuscular hemoglobin concentration (mchc…,100 mg/kg/day
same,LEL,[4]; systemic / pathology microscopic / liver / hypertrophy,81.4 mg/kg/day
same,NEL,[4]; systemic / pathology microscopic / liver / hypertrophy + systemic / hematology / hematocrit (hct) / hematocrit (hct) + systemic / in life …,1.71 mg/kg/day
same,LEL,[5],18.6 mg/kg/day
same,LOAEL,[5],18.6 mg/kg/day
same,NEL,[5],1.95 mg/kg/day
same,NOAEL,[5],1.95 mg/kg/day
same,LEL,[6],0.4 mg/kg/day
same,LOAEL,[6],79.9 mg/kg/day
same,NEL,[6],< 0.4 mg/kg/day
same,NOAEL,[6],7.9 mg/kg/day
same,LEL,[7],54 mg/kg/day
same,LOAEL,[7],54 mg/kg/day
same,NEL,[7],6.5 mg/kg/day
same,NOAEL,[7],6.5 mg/kg/day
same,LEL,[8]; [15],31 mg/kg/day
same,LOAEL,[8]; [15],31 mg/kg/day
same,NEL,[8]; [16],3.1 mg/kg/day
same,NOAEL,[8]; [16],3.1 mg/kg/day
same,NEL,[9]; [17],100 mg/kg/day
same,NOAEL,[9]; [17],100 mg/kg/day
same,LEL,[9]; [18],200 mg/kg/day
same,LOAEL,[9]; [18],200 mg/kg/day
same,LOAEL,"[9]; group: maternal, systemic / in life observation / body weight / body weight gain + systemic / in life observation / food consumption / food consumption",100 mg/kg/day
same,LEL,[9]; [19],100 mg/kg/day
same,NEL,[9]; [19],20 mg/kg/day
same,NOAEL,[9]; [19],20 mg/kg/day
